Measured values taken from article PMC6628017, “Advanced Glycation End-Products Can Activate or Block Bitter Taste Receptors” (Nutrients, 2019).
Entries after “also recorded” stand apart in the source; their conditions may differ. Where a name gives a salt, the structure may show the parent alone. Read-outs that look alike come from different tables or passages of the source. One block for each molecule: values may come before it.

Columns and labels:
T2R4 [1] = target: T1, T2R4 (Homo sapiens, UniProt Q9NYW5); conditions: cited from earlier work
T1 sequence (Q9NYW5 1-299): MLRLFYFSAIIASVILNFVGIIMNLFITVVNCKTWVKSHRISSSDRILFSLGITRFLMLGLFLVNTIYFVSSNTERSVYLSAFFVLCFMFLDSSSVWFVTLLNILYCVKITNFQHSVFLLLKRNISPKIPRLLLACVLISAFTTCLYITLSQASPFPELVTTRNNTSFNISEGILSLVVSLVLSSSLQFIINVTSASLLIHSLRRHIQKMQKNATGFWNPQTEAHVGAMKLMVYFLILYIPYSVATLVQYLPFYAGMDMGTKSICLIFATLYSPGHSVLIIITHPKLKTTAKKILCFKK

T2R4 [2] = target: T1, T2R4; test: Calcium mobilization assay, HEK293T cells stably expressing T2R4; assay type: cell-based; conditions: for Calcium mobilization by compound alone, T2R4 cells: 100 μM, compared to basal; for IC50: 3–200 μM AGE with quinine 1 mM, ± standard deviation, read-out: IC50, inhibition of quinine-activated T2R4 calcium mobilization
Excerpt: (§1) Human Embryonic Kidney (HEK293T) cell line was purchased from ATCC (Manassas, VA, USA). N-terminal FLAG epitope tagged human TAS2R4, TAS2R14, and TAS2R20 genes were codon-optimized for expression in mammalian cells and cloned into the KpnI-NotI site of pcDNA 3.1/Hygro (+) expression vector, and they were commercially synthesized (GenScript Inc., Piscataway, MA, USA) as previously described in Reference. We generated stable HEK293T cells expressing the above T2Rs in the selection medium containing 200 μg/mL hygromycin as described previously in References.
(§2) Calcium mobilization assays on each T2R expressing stable cells were performed by incubation with Fluo-4 NW dye containing probenecid (2.5 mM) for 35 min at 37 °C, followed by 35 min at room temperature. We then treated the cells either with the putative agonist alone or in combination with the AGE compound. To elucidate the action of AGEs on T2Rs, the cells were initially treated with a fixed concentration (100 μM). To determine IC50 for AGE compounds, the agonist concentration was kept constant whilst the AGE compound was added in a concentration dependent manner (3 μM to 200 μM). To determine EC50 for the agonists, we used a concentration range from 3 μM to 200 μM. The Flexstation-3 automated fluorescence microplate reader (Molecular devices) was used to measure the calcium at 525 nm emission, followed by excitation at 494 nm. ΔRFU (relative fluorescence units) were calculated by the system based on the difference between the maximum response and minimum response. We used HEK293T cells as the control for baseline subtraction. The data were collected from at least three independent experiments performed in triplicates and analyzed using GraphPad Prism V. 6.0 (GraphPadSoftware, La Jolla, CA, USA).

T2R14 = target: T2, T2R14 (Homo sapiens, UniProt Q9NYV8); test: Calcium mobilization assay, HEK293T cells stably expressing T2R14; assay type: cell-based; conditions: for Calcium response by compound alone, T2R14 cells: 100 μM; for Inhibition of DPH-activated T2R14 calcium mobilization: 3–200 μM AGE with DPH 500 μM
T2 sequence (Q9NYV8 1-317): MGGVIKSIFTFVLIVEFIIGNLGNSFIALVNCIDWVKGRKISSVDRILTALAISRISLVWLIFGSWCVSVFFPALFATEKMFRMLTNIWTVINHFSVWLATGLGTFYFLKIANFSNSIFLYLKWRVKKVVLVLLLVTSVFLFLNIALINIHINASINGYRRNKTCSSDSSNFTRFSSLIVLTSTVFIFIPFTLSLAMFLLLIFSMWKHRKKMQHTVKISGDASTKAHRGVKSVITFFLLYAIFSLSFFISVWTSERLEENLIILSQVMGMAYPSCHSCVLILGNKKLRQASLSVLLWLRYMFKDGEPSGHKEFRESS
Excerpt: as §1, §2

T2R20 = target: T3, T2R20 (Homo sapiens, UniProt P59543); test: Calcium mobilization assay, HEK293T cells stably expressing T2R20; assay type: cell-based; conditions: for Activation of T2R20 by compound alone: 100 μM; for EC50: 3–200 μM, ± standard deviation, read-out: EC50, activation of T2R20 calcium mobilization
T3 sequence (P59543 1-309): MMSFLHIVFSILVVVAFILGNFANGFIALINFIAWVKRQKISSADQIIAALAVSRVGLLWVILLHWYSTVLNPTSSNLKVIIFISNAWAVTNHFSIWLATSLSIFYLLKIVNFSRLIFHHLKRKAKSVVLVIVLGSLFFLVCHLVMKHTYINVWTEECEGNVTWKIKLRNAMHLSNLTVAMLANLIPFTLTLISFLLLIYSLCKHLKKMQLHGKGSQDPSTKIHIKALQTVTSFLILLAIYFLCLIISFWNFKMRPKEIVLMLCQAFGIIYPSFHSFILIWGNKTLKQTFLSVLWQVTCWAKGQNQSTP
Excerpt: as §1, §2

[3] = Solubility in calcium assay buffer; assay type: physicochemical; conditions: 1X HBSS, 20 mM HEPES
Excerpt: The cell-culture medium was composed of Dulbecco’s modified Eagle’s medium-F12 (Gibco, Life technologies, Carlsbad, CA, USA) supplemented with 10% heat-inactivated fetal bovine serum (Sigma, Burlington, MA, USA) and 1% penicillin-streptomycin (Gibco, Life technologies). We used hygromycin (Sigma Aldrich, Oakville, ON, Canada) in the selection medium to generate stable cells. All bitter compounds (quinine hydrochloride, diphenhydramine or DPH, and cromolyn) were purchased from Sigma Aldrich (Oakville, ON, Canada). We purchased glyoxal-derived lysine dimer (GOLD) and Nε-Carboxymethyl-L-lysine (CML) from PolyPeptide Laboratories (Strasbourg, France). All the compounds were freshly prepared using calcium assay buffer (1X HBSS, 20 mM HEPES) on the day of the experiment. Calcium sensitive dye Fluo-4 NW kit was purchased from Life technologies (Carlsbad, CA USA).

Molecule: NCCCC[C@@H](C(=O)O)N(CC(=O)O)CC(=O)O [BCML, Nα, Nα-bis(carboxymethyl)-L-lysine]
IC50 (T2R4 [1]; read-out: IC50 against quinine, T2R4 antagonist): 0.06 µM

Molecule: CC(NCCCC[C@H](N)C(=O)O)C(=O)O (some centres unmarked) [Nε-Carboxyethyl Lysine (CEL), Nε-Carboxyethyl Lysine]
Solubility in calcium assay buffer [3]: insoluble or only slightly soluble

Molecule: C=C[C@H]1C[N@@]2CC[C@H]1C[C@H]2[C@H](O)c1ccnc2ccc(OC)cc12 [quinine, quinine hydrochloride]
EC50 (T2R4 [1]; agonist): 1000 µM

Second part, led by results:

IC50 (T2R4 [2]): 32.6 ± 9.5 µM
Calcium response by compound alone, T2R14 cells (T2R14): did not show any calcium response
Activation of T2R20 by compound alone (T2R20): activated T2R20
EC50 (T2R20): 65.3 ± 17.8 µM
Molecule: N[C@@H](CCCCNCC(=O)O)C(=O)O [CML, Nε-Carboxymethyl-L-lysine]
Calcium mobilization by compound alone, T2R4 cells (T2R4 [2]): did not cause a significant increase in calcium mobilization
Inhibition of DPH-activated T2R14 calcium mobilization (T2R14): no significant effect in suppressing the DPH activation of T2R14

IC50 (T2R4 [2]): 10.5 ± 4.7 µM
Calcium response by compound alone, T2R14 cells (T2R14): did not show any calcium response
Activation of T2R20 by compound alone (T2R20): activated T2R20
EC50 (T2R20): 79.3 ± 29.2 µM
Molecule: NC(CCCCn1cc[n+](CCCCC(N)C(=O)O)c1)C(=O)O (centres unmarked) [GOLD, glyoxal-derived lysine dimer]
Calcium mobilization by compound alone, T2R4 cells (T2R4 [2]): did not cause a significant increase in calcium mobilization
Inhibition of DPH-activated T2R14 calcium mobilization (T2R14): did not generate a reverse sigmoid curve to determine the IC50 value; also recorded: no dose-dependent inhibition observed

EC50 (T2R20): 50.7 ± 15.1 µM
Molecule: O=C(O)c1cc(=O)c2c(OCC(O)COc3cccc4oc(C(=O)O)cc(=O)c34)cccc2o1 [cromolyn, reference compound]

Solubility in calcium assay buffer [3]: insoluble or only slightly soluble
Molecule: Pentosidine
